Where two headings read alike, the source gives them in different places.
Experiments:
[1] = molecular target: G118R/E138K integrase-DNA complex (Human immunodeficiency virus type 1 group M subtype B, UniProt P04585, E1285K/G1265R); test: Dissociation of 3H-labeled INSTIs from integrase-DNA complexes (scintillation proximity assay); assay type: binding, HIV-1; conditions: for t1/2 (dissociative half-life): G118R, E138K integrase-DNA complex, ln 2 divided by mean koff
Procedure: (§1) Dissociation of INSTIs from integrase-DNA complexes was evaluated as previously described ([35]). Briefly, biotinylated viral long-terminal-repeat DNA duplexes were prepared and attached to streptavidin-coated scintillation proximity assay imaging beads. Wild-type and R263K, G118R, or G118R/E138K mutant integrase-DNA-bead complexes were formed, and unbound protein was removed. […] Relative binding (RB) was calculated as the ratio of dissociation signal to high signal and fit with the equation RB = EP + ΔRB(e^−^k^off^t), where EP is the RB endpoint, koff is the dissociation rate constant, ΔRB is the change in RB, and t is time, using the SigmaPlot program (Systat Software, San Jose, CA).

[2] = molecular target: G118R integrase-DNA complex (Human immunodeficiency virus type 1 group M subtype B, UniProt P04585, G1265R); test: as above; assay type: binding, HIV-1; conditions: for t1/2 (dissociative half-life): ln 2 divided by mean koff
Procedure: as §1

[3] = molecular target: T1, wild-type integrase-DNA complex (Human immunodeficiency virus type 1 group M subtype B, UniProt P04585); test: as above; assay type: binding, HIV-1; conditions: for t1/2 (dissociative half-life): Wild-type integrase-DNA complex, ln 2 divided by mean koff; for koff: read-out: koff (mean ± SD)
Procedure: as §1

[4] = molecular target: R263K integrase-DNA complex (Human immunodeficiency virus type 1 group M subtype B, UniProt P04585, R1410K); test: as above; assay type: binding, HIV-1; conditions: for t1/2 (dissociative half-life): ln 2 divided by mean koff
Procedure: as §1

HIV-1 [5] = system: HIV-1; set-up: method as in PMID 30732940; conditions: cited from earlier work
[6] = system: HIV-1 variant clones (participant-derived integrase); test: Clonal integrase phenotyping of variant clones (Monogram Biosciences); assay type: cell-based; conditions: fold change in IC50 relative to wild-type
HIV-1 [7] = conditions: 12 participants switched at week 48
Text: Confirmed virologic withdrawal criteria were defined as 2 consecutive measurements with a decrease in plasma HIV-1 RNA of <1.0 log10 copies/mL by week 16 (unless HIV-1 RNA levels were <400 copies/mL), plasma HIV-1 RNA levels of ≥400 copies/mL at or after week 24, or plasma HIV-1 RNA levels of ≥400 copies/mL after confirmed HIV-1 RNA levels of <400 copies/mL. Participants who met CVW criteria were withdrawn from the study. For this ad hoc assessment carried out after the week 48 analysis, participants with available data through 12 September 2019 were included.

[8] = system: recombinant viruses containing participant-derived integrase sequences; conditions: for Fold change in dolutegravir sensitivity: fold change in IC50 relative to wild-type, clinical cutoff 4.0
Procedure: HIV-1 genotyping and phenotyping of plasma samples at baseline and the first sample of the 2 required to meet CVW criteria were conducted by Monogram Biosciences (South San Francisco, CA) using PhenoSense Integrase, PhenoSense GT, and GeneSeq Integrase assays, with the PhenoSense GT Plus Integrase assay used as a backup alternative in case of initial resistance assay failure.

[9] = molecular target: T1, wild-type integrase-DNA complex; conditions: cited from earlier work
[10] = patient 1, Baseline, R263K clones (3 clones)
[11] = patient 1, Baseline, Wild-type clones (5 clones)
[12] = patient 1, CVW (wk 36), Wild-type clones (8 clones)
[13] = patient 2, Baseline, T66I clone (1 clone)
[14] = patient 2, Baseline, Wild-type clones (7 clones)
[15] = patient 2, CVW (wk 36), G118R clones (8 clones)
[16] = patient 3, Baseline, Wild-type clones (16 clones)
[17] = patient 3, CVW (wk 48), G118R, E138K, R263K clones (13 clones)
[18] = patient 3, CVW (wk 48), H51Y, G118R clones (3 clones)

C[C@@H]1CCO[C@H]2Cn3cc(C(=O)NCc4ccc(F)cc4F)c(=O)c(O)c3C(=O)N12 [Dolutegravir, dolutegravir]
fold increase in dissociation rate constant (koff) relative to the wild type ([1]; G118R plus E138K integrase-DNA complex): 9.0 fold | t1/2 (dissociative half-life) [1]: 10.1 h | fold increase in dissociation rate constant (koff) relative to the wild type [2]: 8.6 fold | t1/2 (dissociative half-life) [2]: 10.7 h | t1/2 (dissociative half-life) ([2]; listed as dolutegravir): ~10 h | t1/2 (dissociative half-life) [3]: 92 h | koff [3]: 2.1e-06 ± 1e-07 s⁻¹ | fold increase in dissociation rate constant (koff) relative to the wild type [4]: 1.8 fold | t1/2 (dissociative half-life) [4]: 52 h | t1/2 (dissociative half-life) ([4]; listed as dolutegravir): ~50 h | participants meeting CVW who developed treatment-emergent genotypic and phenotypic INSTI resistance (HIV-1 [5]; through the week 48 analysis): 2 of 11 | virologic suppression (HIV-1 RNA levels of <50 copies/mL) versus comparator (HIV-1 [5]; week 48, both in combination with 2 NRTIs): superiority to ritonavir-boosted lopinavir | Fold change in median drug sensitivity [6, 10]: 1.81 | Fold change in median drug sensitivity [6, 11]: 0.87 | Fold change in median drug sensitivity [6, 12]: 0.77 | Fold change in median drug sensitivity [6, 13]: 0.33 | Fold change in median drug sensitivity [6, 14]: 0.93 | Fold change in median drug sensitivity [6, 15]: 30.5 | Fold change in median drug sensitivity [6, 16]: 1.08 | Fold change in median drug sensitivity [6, 17]: 13 | Fold change in median drug sensitivity [6, 18]: 11 | INSTI resistance in participants who switched from ritonavir-boosted lopinavir to the dolutegravir regimen (HIV-1 [7]): None of the 12 participants | change in in vitro dolutegravir resistance versus baseline levels ([8]; 6 participants with treatment-emergent INSTI resistance-associated substitutions): > 10 fold | median fold change in dolutegravir susceptibility at CVW ([8]; participants with treatment-emergent integrase substitutions (6 participants)): 25 | Fold change in dolutegravir sensitivity ([8]; patient 1, Baseline, subtype C, INSTI mutation R263R/K): 1.03 | Fold change in dolutegravir sensitivity ([8]; patient 1, Wk 36 (CVW), no INSTI mutation): 0.79 | Fold change in dolutegravir sensitivity ([8]; patient 2, Baseline, subtype B): 1.02 | Fold change in dolutegravir sensitivity ([8]; patient 2, Wk 36 (CVW), G118R): 30 | Fold change in dolutegravir sensitivity ([8]; patient 3, Baseline, subtype C): 1.26 | Fold change in dolutegravir sensitivity ([8]; patient 3, Wk 48 (CVW), H51H/Y, G118R, E138E/K, 263R/K): 15 | Fold change in dolutegravir sensitivity ([8]; patient 4, Baseline, subtype A1, L74I): 0.93 | Fold change in dolutegravir sensitivity ([8]; patient 4, Wk 48 (CVW), L74I, G118G/R, E138E/K, 148Q/R, R263R/K): 20 | Fold change in dolutegravir sensitivity ([8]; patient 5, Baseline, subtype Complex): 0.59 | Fold change in dolutegravir sensitivity ([8]; patient 5, Wk 60 (CVW), E138K, G140S, Q148H, N155H): >106.45 | Fold change in dolutegravir sensitivity ([8]; patient 6, Baseline, subtype C, L74L/I): 0.6 | Fold change in dolutegravir sensitivity ([8]; patient 6, Wk 72 (CVW), T66T/I, L74I, G118R, E138E/K): 22 | Fold change in dolutegravir sensitivity ([8]; patient 7, Baseline, subtype C): 0.98 | Fold change in dolutegravir sensitivity ([8]; patient 7, Wk 168 (CVW), G118R): 28

Cc1nnc(C(=O)NC(C)(C)c2nc(C(=O)NCc3ccc(F)cc3)c(O)c(=O)n2C)o1 [Raltegravir, raltegravir]
t1/2 (dissociative half-life) [1]: 3.2 h | fold increase in dissociation rate constant (koff) relative to the wild type [2]: 3.4 fold | t1/2 (dissociative half-life) [2]: 2.7 h | t1/2 (dissociative half-life) [3]: 9.2 h | koff [3]: 2.1e-05 ± 2e-06 s⁻¹ | fold increase in dissociation rate constant (koff) relative to the wild type [4]: no change in koff | t1/2 (dissociative half-life) [4]: 9.6 h | t1/2 (dissociative half-life), previously measured [9]: 8.8 h | Fold change in median drug sensitivity [6, 10]: 1.09 | Fold change in median drug sensitivity [6, 11]: 0.88 | Fold change in median drug sensitivity [6, 12]: 0.89 | Fold change in median drug sensitivity [6, 13]: 0.58 | Fold change in median drug sensitivity [6, 14]: 1.18 | Fold change in median drug sensitivity [6, 15]: 24 | Fold change in median drug sensitivity [6, 16]: 1.03 | Fold change in median drug sensitivity [6, 17]: 2.03 | Fold change in median drug sensitivity [6, 18]: 4.43

From article PMC8765460 (Antimicrobial Agents and Chemotherapy, 2022)
